Experimental data published in patent US9518976B2, “Methods for identifying or assaying for agents that increase beta-cell proliferation, insulin secretion, insulin sensitivity, glucose tolerance and decrease fat mass” (The Trustees of Columbia University in The City of New York, priority 2006, dated 2016).
Ends that are not written are not given here.

Columns and labels:
Wild type mice [1] = assay: Osteocalcin subcutaneous infusion in wt mice: glucose tolerance after glucose injection; type: in vivo, mouse; details: 0.3 or 3 ng/hour s.c. for 14 days, then single glucose injection, 120 minute period, vs PBS
Description: FIG. 11. […] Wt mice were infused subcutaneously with indicated doses of recombinant osteocalcin or PBS for 14 days before receiving a single injection of glucose. Blood glucose was measured thereafter at indicated times.
For glucose tolerance test (GTT), glucose (2 g/kg body weight (BW)) was injected intraperitoneally (IP) after an overnight fast and blood glucose was monitored using blood glucose strips and the Accu-Check glucometer (Roche) at indicated times. For glucose stimulated insulin secretion test (GSIS), glucose (3 g/kg BW) was injected IP after an overnight fast; sera were collected from tails and insulin measured as described (Mauvais-Jarvis et al., 2000). For insulin tolerance test (ITT), mice were fasted for six hours, injected IP with insulin (0.2 U/kg BW) and blood glucose levels were measured at indicated times as described (Mauvais-Jarvis et al., 2002). ITT data are presented as percentage of initial blood glucose concentration. […] Streptozotocin ([…] single injection, Sigma) was injected IP and blood glucose measured as described above every 2 days thereafter. […] Food intake was measured using metabolic cages as the daily change of food weight. Energy expenditure was measured using metabolic cages connected to a calorimeter (Columbus Instrument). Heat values (Kcal/Hr) were recorded over 2 days and reported to each mouse BW. […]

[2] = Osteocalcin subcutaneous infusion in wt mice: body weight and gonadal fat pad mass; type: in vivo, mouse
Description: FIG. 13. […] 1) Indicated doses of recombinant osteocalcin or PBS were infused subcutaneously for 28 days in wt mice. Body weight was recorded at indicated days. (2). Gonadal fat pad mass was measured after 28 days.
In another in vivo experiment, the effect of uncarboxylated osteocalcin on body weight and fat pad mass was monitored (FIG. 13). Wild type mice were infused subcutaneously for 28 days with PBS or uncarboxylated osteocalcin at 0.3, 1 or 3 ng/hour. […] (FIG. 13) Gonadal fat pad mass, measured after 28 days, decreased by about % 18 with 3 ng/hour uncarboxylated osteocalcin treatment.

Wild type mice [3] = assay: Osteocalcin subcutaneous infusion in wt mice: glycemia; type: in vivo, mouse; details: 0.3, 1 and 3 ng/hour subcutaneous infusion for 28 days, vs PBS
Description: FIG. 10. […] Indicated doses of recombinant osteocalcin or PBS were infused subcutaneously for 28 days in wt mice. Blood glucose was measured at indicated days.
An in vivo experiment was conducted in which the effect of undercarboxylated osteocalcin on glycemia was monitored. Wild type mice were infused with 3 different amounts of mouse recombinant undercarboxylated osteocalcin or placebo (PBS) subcutaneously for 28 days (0.3, 1 and 3 ng/hour).

WT islets = assay: Insulin and Cyclin D1 expression in WT islets cultured with uncarboxylated osteocalcin; type: cell-based, mouse; details: 0.3 ng/ml (FIG. 7L)
Source text: FIG. 7. Esp−/− Mice Are a Model of Increased Osteocalcin Bioactivity. (A-G) Comparison between 6-week-old WT, Esp−/, Ocn+/−, and Esp−/−; Ocn+/− mice. (A) Blood glucose levels. (B) Serum insulin levels. (C) Serum adiponectin levels. (D) GTT. (E) ITT. (F) GSIS test. (G) Quantification of the number of Ki67-immunoreactive cells in pancreatic islets. […] (J) Expression of Adiponectin in WT adipocytes cocultured with osteoblasts treated with warfarin or vehicle. (K) Expression of Adiponectin in WT adipocytes cultured in presence of vehicle or of 1 ng/ml of commercially available carboxylated osteocalcin (Immunotopics) or bacterially produced uncarboxylated osteocalcin. (L) Expression of Insulin and Cyclin D1 in WT islets cultured in presence of 0.3 ng/ml of bacterially produced uncarboxylated osteocalcin or vehicle. (M) Metabolic parameters and total serum osteocalcin levels in control and obese patients. (N-O) Quantification of carboxylated osteocalcin (HA-bound osteocalcin) in control and obese patients. In (A)-(C) and (G)-(L): *p<0.05 versus WT (Student's t test); in (D)-(F), °p<0.05 versus WT and *p % 0.001 versus WT (ANOVA followed by post hoc analysis).
Islets were isolated using a Histopaque gradient (1077, Sigma). In brief, after clamping the common bile duct at its entrance to the duodenum, 1 mg/ml collagenase P (Sigma) in M199 medium (GIBCO) was injected into the duct. […]

[4] = listed as recombinant osteocalcin

uncarboxylated osteocalcin: Recombinant mouse osteocalcin bacterially produced, cleaved from GST with thrombin; completely undercarboxylated at all three sites (YLGASVPSPDPLEPTREQCELNPACDELSDQYGLKTAYKRIYGITI; not fully specified; ends and bridges not checked; UniProt P86546 50-95, looked up)
glucose tolerance (Wild type mice [1]): increased glucose tolerance
glucose tolerance (Wild type mice [1]; [4]): increases glucose tolerance
gonadal fat pad mass decrease ([2]; wild type mice, 3 ng/hour s.c., after 28 days): ~18%
body weight ([2]; wild type mice, 0.3, 1 or 3 ng/hour s.c. for 28 days, highest dose most effective): slightly reduced
gonadal fat pad mass ([2]; wild type mice, the other doses (0.3, 1 ng/hour), 28 days): did not significantly decrease
fat mass ([2]; wt mice, indicated doses s.c. for 28 days (FIG. 13 legend)): decreases fat mass
glycemia (blood glucose) (Wild type mice [3]; [4]): decreases glycemia
glycemia (blood glucose) (Wild type mice [3]; listed as undercarboxylated osteocalcin): decreased glycemia
expression of Cyclin D1, marker of beta-cell proliferation (WT islets): induced
insulin expression (WT islets): induced
